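GI50 is the concentration that inhibits growth by half. TGI is the concentration that stops growth completely.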
Experiments:
Assay in all cases: inhibition of tumour cell growth, NCI panel, 384-well format
[1] = system: 786-0 renal
[2] = system: A498 renal
[3] = system: A549 NSCLC
[4] = system: BT-549 breast
[5] = system: CAKI-1 renal
[6] = system: CCRF-CEM leukemia
[7] = system: COLO 205 colon
[8] = system: DU-145 prostate
[9] = system: EKVX NSCLC
[10] = system: HCC-2998 colon
[11] = system: HCT-116 colon
[12] = system: HCT-15 colon
[13] = system: HL-60(TB) leukemia
[14] = system: HOP-62 NSCLC
[15] = system: HOP-92 NSCLC
[16] = system: HS 578T breast
[17] = system: HT29 colon
[18] = system: IGROV1 ovarian
[19] = system: K-562 leukemia
[20] = system: KM12 colon
[21] = system: LOX IMVI melanoma
[22] = system: M14 melanoma
[23] = system: MALME-3M melanoma
[24] = system: MCF7 breast
[25] = system: MDA-MB-231 breast
[26] = system: MDA-MB-435 melanoma
[27] = system: MDA-MB-468 breast
[28] = system: MOLT-4 leukemia
[29] = system: NCI-H226 lung
[30] = system: NCI-H23 lung
[31] = system: NCI-H322M lung
[32] = system: NCI-H460 NSCLC
[33] = system: NCI-H522 lung
[34] = system: NCI/ADR-RES ovarian
[35] = system: OVCAR-3 ovarian
[36] = system: OVCAR-4 ovarian
[37] = system: OVCAR-5 ovarian
[38] = system: PC-3 prostate
[39] = system: RPMI-8226 leukemia
[40] = system: RXF 393 renal
[41] = system: SF-268 CNS
[42] = system: SF-295 CNS
[43] = system: SF-539 CNS
[44] = system: SK-MEL-2 melanoma
[45] = system: SK-MEL-28 melanoma
[46] = system: SK-MEL-5 melanoma
[47] = system: SK-OV-3 ovarian
[48] = system: SNB-19 CNS
[49] = system: SNB-75 CNS
[50] = system: SR leukemia
[51] = system: SW-620 colon
[52] = system: T-47D breast
[53] = system: TK-10 renal
[54] = system: U251 glioblastoma
[55] = system: UACC-257 melanoma
[56] = system: UACC-62 melanoma
[57] = system: UO-31 renal

`Cc1nc(N)sc1-c1ccnc(Nc2ccc(N3CCOCC3)cc2)n1` was tested, and the GI50 [1] was 1420 nM, the TGI [1] was 6.74 µM and the GI50 [2] was 433 nM. For the same molecule, the TGI [2] was 3.72 µM, the GI50 [3] was 440 nM and the TGI [3] was 7.61 µM. For the same molecule, the GI50 [4] was 190 nM, the TGI [4] was 676 nM and the GI50 [5] was 381 nM. The TGI [5] was 2050 nM, the GI50 [6] was 127 nM and the TGI [6] was 1060 nM. The GI50 [7] was 756 nM, the TGI [7] was 16.2 µM and the GI50 [8] was 709 nM. It also gave a TGI [8] of 75.5 µM, a GI50 [9] of 1350 nM and a TGI [9] of 5.83 µM. For the same molecule, the GI50 [10] was 3.88 µM, the TGI [10] was 42 µM and the GI50 [11] was 557 nM. It also gave a TGI [11] of 4.16 µM, a GI50 [12] of 328 nM and a TGI [12] of 15.3 µM. It also gave a GI50 [13] of 642 nM, a TGI [13] of 2400 nM and a GI50 [14] of 504 nM. The TGI [14] was 4.58 µM, the GI50 [15] was 433 nM and the TGI [15] was 4.49 µM. The GI50 [16] was 302 nM, the TGI [16] was 1560 nM and the GI50 [17] was 596 nM. For the same molecule, the TGI [17] was 2140 nM, the GI50 [18] was 305 nM and the TGI [18] was 2090 nM. For the same molecule, the GI50 [19] was 1150 nM, the TGI [19] was greater than 100 µM and the GI50 [20] was 378 nM. For the same molecule, the TGI [20] was 15.3 µM, the GI50 [21] was 767 nM and the TGI [21] was 2530 nM. For the same molecule, the GI50 [22] was 2410 nM, the TGI [22] was 28 µM and the GI50 [23] was 2700 nM. For the same molecule, the TGI [23] was greater than 100 µM, the GI50 [24] was 1620 nM and the TGI [24] was 23.2 µM. For the same molecule, the GI50 [25] was 371 nM, the TGI [25] was 4.95 µM and the GI50 [26] was 1740 nM. It also gave a TGI [26] of 18.7 µM, a GI50 [27] of 132 nM and a TGI [27] of 330 nM. It also gave a GI50 [28] of 22.4 nM, a TGI [28] of 115 nM and a GI50 [29] of 416 nM. It also gave a TGI [29] of 2530 nM, a GI50 [30] of 1380 nM and a TGI [30] of 7.56 µM. For the same molecule, the GI50 [31] was 1650 nM, the TGI [31] was 26.9 µM and the GI50 [32] was 224 nM. It also gave a TGI [32] of 3.13 µM, a GI50 [33] of 142 nM and a TGI [33] of 3.02 µM. It also gave a GI50 [34] of 2650 nM, a TGI [34] greater than 100 µM and a GI50 [35] of 1070 nM. For the same molecule, the TGI [35] was 23.1 µM, the GI50 [36] was 46 µM and the TGI [36] was greater than 100 µM. The GI50 [37] was 854 nM, the TGI [37] was 9.33 µM and the GI50 [38] was 463 nM. For the same molecule, the TGI [38] was 8.53 µM, the GI50 [39] was 375 nM and the TGI [39] was 2120 nM. The GI50 [40] was 922 nM, the TGI [40] was 2570 nM and the GI50 [41] was 663 nM. For the same molecule, the TGI [41] was 5.73 µM, the GI50 [42] was 627 nM and the TGI [42] was 5.7 µM. For the same molecule, the GI50 [43] was 499 nM, the TGI [43] was 1900 nM and the GI50 [44] was 2190 nM. It also gave a TGI [44] of 5.56 µM, a GI50 [45] of 1380 nM and a TGI [45] of 7.04 µM. The GI50 [46] was 1600 nM, the TGI [46] was 8.43 µM and the GI50 [47] was 411 nM. For the same molecule, the TGI [47] was 4.87 µM, the GI50 [48] was 4.42 µM and the TGI [48] was greater than 100 µM. For the same molecule, the GI50 [49] was 653 nM, the TGI [49] was 2410 nM and the GI50 [50] was 32.9 nM. The TGI [50] was 121 nM, the GI50 [51] was 397 nM and the TGI [51] was 2390 nM. It also gave a GI50 [52] of 5.42 µM, a TGI [52] of 68.6 µM and a GI50 [53] of 376 nM. It also gave a TGI [53] of 7.48 µM, a GI50 [54] of 1540 nM and a TGI [54] of 17.9 µM. The GI50 [55] was 3.68 µM, the TGI [55] was 9.9 µM and the GI50 [56] was 482 nM. It also gave a TGI [56] of 3.37 µM, a GI50 [57] of 619 nM and a TGI [57] of 3.09 µM.

Source: PubChem BioAssay (NCI)
